Measurements reported in article PMC3118852 (Chemical research in toxicology, 2011).

Experiments:
[1] = biological target: BChE; settings: cited from earlier work
[2] = biological target: CBDP-phosphonylated AChE (Homo sapiens, UniProt P22303); type: biochemical; settings: pH 8
[3] = tested on: rat brain AChE; settings: pH 7.4; cited from earlier work
[4] = tested on: paraoxonase 1; settings: cited from earlier work
[5] = tested on: recombinant human AChE; settings: pH 8; cited from earlier work
[6] = biological target: T1, human BChE (Homo sapiens, UniProt P06276)
T1 sequence (P06276 29-602): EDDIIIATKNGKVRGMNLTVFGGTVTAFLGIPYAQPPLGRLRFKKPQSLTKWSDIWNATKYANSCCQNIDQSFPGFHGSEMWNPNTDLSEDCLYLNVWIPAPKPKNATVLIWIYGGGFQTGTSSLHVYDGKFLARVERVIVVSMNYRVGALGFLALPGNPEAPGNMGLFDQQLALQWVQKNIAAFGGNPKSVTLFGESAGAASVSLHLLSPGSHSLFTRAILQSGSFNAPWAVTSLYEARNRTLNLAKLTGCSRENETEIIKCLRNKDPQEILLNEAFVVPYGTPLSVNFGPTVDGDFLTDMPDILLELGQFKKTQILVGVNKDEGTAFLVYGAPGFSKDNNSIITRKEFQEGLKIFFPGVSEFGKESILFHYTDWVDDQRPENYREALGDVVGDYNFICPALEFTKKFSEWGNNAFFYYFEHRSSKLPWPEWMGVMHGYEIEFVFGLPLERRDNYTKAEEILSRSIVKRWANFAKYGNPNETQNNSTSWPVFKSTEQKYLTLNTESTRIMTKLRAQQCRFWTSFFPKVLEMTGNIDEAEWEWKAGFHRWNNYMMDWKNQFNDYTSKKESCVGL

[7] = pH 8
[8] = biological target: human AChE (Homo sapiens, UniProt P22303); type: biochemical
Sequence of human AChE (P22303 32-614): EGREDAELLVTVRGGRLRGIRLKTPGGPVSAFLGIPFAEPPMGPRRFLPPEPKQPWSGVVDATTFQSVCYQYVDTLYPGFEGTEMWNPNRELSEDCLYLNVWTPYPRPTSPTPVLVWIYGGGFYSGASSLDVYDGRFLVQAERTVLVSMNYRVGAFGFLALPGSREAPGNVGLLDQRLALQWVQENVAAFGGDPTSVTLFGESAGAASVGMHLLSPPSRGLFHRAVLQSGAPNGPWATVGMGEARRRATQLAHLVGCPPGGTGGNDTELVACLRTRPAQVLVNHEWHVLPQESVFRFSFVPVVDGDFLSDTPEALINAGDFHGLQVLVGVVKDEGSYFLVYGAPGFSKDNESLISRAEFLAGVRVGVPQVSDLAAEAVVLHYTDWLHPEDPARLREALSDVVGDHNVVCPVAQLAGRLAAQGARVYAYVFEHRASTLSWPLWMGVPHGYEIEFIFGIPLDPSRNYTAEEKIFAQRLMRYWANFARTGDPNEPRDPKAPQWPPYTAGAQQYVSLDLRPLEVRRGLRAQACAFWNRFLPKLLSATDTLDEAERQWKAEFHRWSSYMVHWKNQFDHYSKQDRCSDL

[9] = biological target: T1, human BChE; settings: pH 8; cited from earlier work
[10] = biological target: CBDP-phosphonylated BChE (Homo sapiens, UniProt P06276); type: biochemical; settings: pH 8
Sequence of CBDP-phosphonylated BChE (P06276 29-602): as the sequence (P06276 29-602) above

Sequence of CBDP-phosphonylated AChE (P22303 32-614): as the sequence (P22303 32-614) above

Compound	ki, reactivity with BChE [1]	time to loss of reactivatibility (aging) following inhibition [2]	bimolecular rate constant of inhibition [3]	reaction with paraoxonase 1 [4]	bimolecular rate constant of inhibition [5]	K'I, dissociation constant of the Michaelis complex, BChE form E′ [6]	ki values for BChE (both forms) [6]	slow phase reactivity of hBChE (form E′) relative to hAChE (form E′) [6]	kp, phosphorylation rate constant, BChE form E (kp=ki.KI) ([6]; human)	Ki ([6]; read-out: KI, dissociation constant of the Michaelis complex, BChE form E)	hydrolysis rate [7]	K'I, dissociation constant of the Michaelis complex, AChE form E′ [8]	kobs, fast phase of inhibition (independent of CBDP concentration) [8]	Ki ([8]; read-out: KI, dissociation constant of the Michaelis complex, AChE form E)	bimolecular rate constant of inhibition [9]	time to loss of reactivatibility (aging) following inhibition [10]
chlorpyrifos-oxon	2.83e+07 M⁻¹ s⁻¹															
Cc1ccccc1OP1(=O)OCc2ccccc2O1 (centres unmarked) [CBDP, 2-(o-cresyl)-4H-1,3,2-benzodioxaphosphoran-2-one]		less than 15 s	18.3 M⁻¹ s⁻¹	does not react	35 M⁻¹ s⁻¹	> 10 nM	10^7–10^8 M^−1 min^−1	235±110 fold	> 1.5 min⁻¹	> 10 nM	0.0126 min⁻¹	> 5.5 µM	0.37 ± 0.15 min⁻¹	< 100 nM	330 M⁻¹ s⁻¹	less than 15 s
CCOP(=O)(OCC)Oc1cc(C)nc(C(C)C)n1 [diazoxon]	1.28e+06 M⁻¹ s⁻¹															
